In this test the target is T1, rAr-FAR-1 (Ar-FAR-1) (Aphelenchoides ritzemabosi, UniProt A0A2D0WIZ9).
T1 construct: full-length 181 aa ORF with signal peptide (18 aa, cleavage Ala18/Glu19); E. coli BL21(DE3)
T1 sequence (A0A2D0WIZ9 1-181): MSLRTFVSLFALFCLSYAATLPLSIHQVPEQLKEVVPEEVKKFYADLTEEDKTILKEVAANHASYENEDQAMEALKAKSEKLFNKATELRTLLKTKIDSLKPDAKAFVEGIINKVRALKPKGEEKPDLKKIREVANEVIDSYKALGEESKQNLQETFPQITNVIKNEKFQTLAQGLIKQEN
In words: fluorescence titration. It counts as binding.

SMILES strings stand for the structures.

As a reminder, the Kd is the constant that tells how readily two partners part at equilibrium. Read a high Kd as a looser complex.

As to `CN(C)c1cccc2c(S(=O)(=O)NCCCCCCCCCCC(=O)O)cccc12` [DAUDA, 11-(5-dimethylaminonaphthalene-1-sulfonylamino) undecanoic acid], the Kd came to 40.5 nM.

`CC1=C(/C=C/C(C)=C/C=C/C(C)=C/CO)C(C)(C)CCC1` [retinol] registered a Kd of 67.9 nM.
